Like-named read-outs stand apart in the source and are kept apart here. Starred links: 1 amine or outer side, 2 acyl side, 3 side chain; linkers in the order of their positions; H or OH if unused. Positions of bridges follow the written chain, without caps; N, C: chain ends. Non-standard residues stand in square brackets, D forms with d. Residues, ends and D or L forms follow the SMILES beside them. X1 = O=C([C@@H](Cc1ccccc1)N(C[C@@]1(O)OC[C@@H](O)[C@@H](O[C@H]2O[C@H](CO)[C@@H](O)[C@H](O)[C@H]2O)[C@@H]1O)[*:1])[*:2]; X3 = O=C([C@@H](Cc1ccccc1)N(C[C@@]1(O)OC[C@@H](O)[C@@H](O)[C@@H]1O)[*:1])[*:2]; X2 = O=C([C@H](CS[*:3])N(C[C@@]1(O)OC[C@@H](O)[C@@H](O)[C@@H]1O)[*:1])[*:2]; Thr(ol) = C[C@@H](O)[C@H](N)CO
What was measured:
GH level in the serum [1] = assay type: in vivo, rats
Description: Male rats are decapitated and blood is collected 1 hour after administering the GH secrection inhibiting compound in several logarithmically spaced doses. The GH level in the serum is determined means of RIA. In this test, these compounds of the invention are active at doses from about 0.02 to about 30 microgram/kg s.c.

[2] = Bioavailability test, oral or intravenous administration, blood detection by radioimmunoassay; assay type: in vivo, dogs
Source text: The compounds of the invention may be compared with the unmodified peptides in standard bioavailability tests.
The compounds of the invention, for example, may be detected in the blood plasma for a longer period after administration than the unmodified peptides, as indicated in standard bioavailability experiments.
The compounds of the invention and the unmodified peptide may be administered to for example dogs in a single dose sufficient to produce a therapeutic effect by oral or intravenous administration.
Doses used are those which permit the peptide or a metabolite thereof to be detected in the blood. Detection may be effected in conventional manner, e.g. by radioimmunoassay.

[3] = Elimination through bile and urine in anaesthetized cannulated rats after s.c. administration; conditions: male, rat, in vivo, sc, 10 microgram/kg
Description: Additionally the compounds of the invention advantageously are eliminated to a greater extent through the kidneys. This may be observed in standard tests.
Fasted Male rats (225-375 g) are administered orally with water (50 ml/kg). After 30 minutes the animals are anaesthetized with e.g. Inactin (100 mg/kg i.p.). The bile duct and bladder are cannulated. Both V. jugularis are exposed. In one vein an infusion of glucose 5% with ethanol 1% is administered (5 ml/hr) to stimulate diuresis. The other vein is used to take blood samples (0.5 ml) every hour over 4 hours.
The compound of the invention and the unmodified peptide is administered s.c. at a dose of from about 10 to about 1000 microgram/Kg. The concentration of the compound is determined in conventional manner e.g. by RIA.
In the above test for example the following results have been obtained with the example 2 compound and octreotide at a dose of 10 microgram/kg: […]

[4] = system: GH (growth hormone) secretion; assay: GH concentration in blood of fasted rhesus monkeys after p.o. administration; assay type: in vivo; conditions: for duration of GH lowering effect: p.o., example 2 at 0.1 mg/kg, lowering by at least 50 per cent
Description: Compounds of the invention which inhibit GH (growth hormone) secretion, especially the compounds of formula VIII, and more especially compounds of formula VIII a to f, and reduce the GH concentrations in the blood, may be tested as follows: Fasted rhesus monkeys (at least 5 monkeys) in primate chairs receive the compound of the invention in a piece of banana as vehicle. The compounds are administered at a dose of from about 0.1 mg/kg to about 10 mg/kg p.o. Blood is taken from the […] via a catheter. The GH concentration in the blood is measured by RIA (radio immunoassay).

gastric acid secretion = assay: Gastric acid secretion in fasted rats with stomach fistula; assay type: in vivo; conditions: for duration of increased stomach pH / pH of the stomach juice reached: by stomach tube
Description: The activity of these compounds is observed in e.g. the following test: GH secretion inhibiting compounds of the invention are administered to fasted rats with fistula implanted in their stomach in doses from about 0.05 mg/kg to about 5 mg/kg by stomach tune. After 1 hour the fistula is opened. The stomach Juice is collected in 30 minute periods. The collected volumes are registered and the acid concentration determined.

[5] = Absorption on oral administration, plasma levels by RIA; assay type: in vivo, OFA rats; conditions: OFA, rat, 10 mg/kg; for level at 0.25 h: 15 mins., read-out: Rat plasma levels following oral administration, 15 mins.; for level at 0.5 h: 30 mins., read-out: Rat plasma levels following oral administration, 30 mins.; for level at 1 h: 60 mins., read-out: Rat plasma levels following oral administration, 60 mins.
Description: Improved absorption on oral administration may be detected for the compounds of the invention as follows:
The compound of the invention and the unmodified analogue are administered orally to OFA rats (e.g. 10 mg/kg). After definite periods of time, e.g. 15, 30 and 60 minutes, blood samples are collected, These are analysed for their drug content by e.g. RIA.

GH level in the serum [6] = assay: GH-reducing activity in male rats having oestradiol implants; assay type: in vivo; conditions: oestradiol-implanted male rats
Description: The GH-reducing activity of these compounds is also observed after oral application to male rats having oestradiol implants. In this test there are relatively small variations in the GH level, The test is carried out as follows:
A loop (length 50 mm .0. 3 mm) of silastic with 50 mg of oestradiol is implanted under ether anaesthesis under the dorsal skin of male rats which have a weight of ca. 300 g. At various times (1 to 6 months later), these animals are used repeatedly for tests. The test substance is administered either s.c. or orally.
Directly before, as well as at various times after administration of the substance, ca. 0.8 ml of blood is removed from the retro-orbital plexus. It is centrifuged and the GH level in the serum is determined by RIA.

[7] = system: calcium level in the blood; assay: Hypocalcemic activity, calcium level in the blood after i.v. administration; assay type: in vivo; conditions: dogs, 5 μg/kg
Source text: The sugar derivatives of calcitonin and of calcitonin analogues or derivatives according to the invention, more especially the derivatives of formula X reduce the calcium plasma level. Moreover, they are functional antagonists of the parathormone, and effect a positive calcium balance in the bones. The hypocalcemic activity of the new compounds may be measured in known manner, e.g. according to the method of M. Azria et al., reported in the Calcitonin 1984 Symposium, 24th October, Milan and published as "Short Communication" in "Current Clinical Practice Series" No. 42, Excerpta Medica 1986, page 104. In this method, a Ca^2+ -ion selective electrode is used, so that the content of calcium ions in the blood of young rabbits or dogs may be continuously measured. The compounds are administered i.v. at a dosage of from about 0.1 to about 10 micrograms/kg, e.g. conforming to ca. 1 international unit per kg. […]
It has for example been determined that each of the compounds of examples 37 and 38 have a duration of action that is much longer than with the unmodified peptide, when administered i.v. to dogs (5 μg/kg).

[8] = s.c., male rats, 1 hour after administration

C[C@@H](O)[C@@H]1NC(=O)[C@H](CCCCN)NC(=O)[C@@H](Cc2c[nH]c3ccccc23)NC(=O)[C@H](Cc2ccccc2)NC(=O)[C@@H](NC(=O)[C@@H](Cc2ccccc2)NC[C@@]2(O)OC[C@@H](O)[C@@H](O)[C@@H]2O)CSSC[C@@H](C(=O)N[C@H](CO)[C@@H](C)O)NC1=O [Example 1] (H-[X3]CF[dW]KTC[Thr(ol)]; disulfide 2-7)
ID50 (amount required to lower the GH content by 50%) (GH level in the serum [1]; rat, in vivo, sc): 0.045 microgram/kg

C[C@@H](O)[C@@H]1NC(=O)[C@H](CCCCN)NC(=O)[C@@H](Cc2c[nH]c3ccccc23)NC(=O)[C@H](Cc2ccccc2)NC(=O)[C@@H](NC(=O)[C@@H](Cc2ccccc2)NC[C@@]2(O)OC[C@@H](O)[C@@H](O[C@H]3O[C@H](CO)[C@@H](O)[C@H](O)[C@H]3O)[C@@H]2O)CSSC[C@@H](C(=O)N[C@H](CO)[C@@H](C)O)NC1=O [Example 2, N^α -[α-glucosyl(1-4)-dioxyfructosyl)-SMS] (H-[X1]CF[dW]KTC[Thr(ol)]; disulfide 2-7)
elimination half-life ([2]; intravenous administration): about 2,3 hours
blood concentration on oral administration compared with octreotide ([2]; oral administration, relative to octreotide): ten fold higher
absolute bioavailability on the basis of the AUC, relative to octreotide ([2]; orally and intravenously administered, relative to octreotide): 5 times
dose excreted ([3]; Percentage eliminated through Bile): 1.6%
dose excreted ([3]; Percentage eliminated through Urine): 36%
lowering of GH secretion ([4]; 0.1 mg/kg p.o.): at least 50 per cent
duration of GH lowering effect [4]: > 10 h
ID50 (amount required to lower the GH content by 50%) (GH level in the serum [1]; [8]): 0.190 microgram/kg
duration of increased stomach pH (gastric acid secretion): 3,5 hours
pH of the stomach juice reached (gastric acid secretion): 6-8 pH
activity relative to cimetidine (gastric acid secretion; compared with cimetidine): at least 60 times

C[C@@H](O)[C@@H]1NC(=O)[C@H](CCCCN)NC(=O)[C@@H](Cc2c[nH]c3ccccc23)NC(=O)[C@H](Cc2ccccc2)NC(=O)[C@@H](NC(=O)[C@@H](Cc2ccccc2)NC(=O)[C@H]2OC(O)[C@H](O)[C@@H](O)[C@@H]2O)CSSC[C@@H](C(=O)N[C@H](CO)[C@@H](C)O)NC1=O (stereo partly shown) [Example 21]
ID50 (amount required to lower the GH content by 50%) (GH level in the serum [1]; rat, in vivo, sc): 0.3 microgram/kg

CC[C@H](C)[C@@H]1NC(=O)[C@H](Cc2ccc(O)cc2)NC(=O)[C@@H](NC[C@@]2(O)OC[C@@H](O)[C@@H](O)[C@@H]2O)CSSC[C@@H](C(=O)N2CCC[C@H]2C(=O)N[C@@H](CC(C)C)C(=O)NCC(N)=O)NC(=O)[C@H](CC(N)=O)NC(=O)[C@H](CCC(N)=O)NC1=O [Example 44, [N-deoxy-fructosyl-Cys^1]-oxytocin] (H-[X2]YIQNCPLG-NH2; disulfide 1-6; C-terminus assumed)
level at 0.25 h [5]: 11.8 ng/mL
level at 0.5 h [5]: 6.98 ng/mL
level at 1 h [5]: 3.98 ng/mL

C[C@@H](O)[C@@H]1NC(=O)[C@H](CCCCN)NC(=O)[C@@H](Cc2c[nH]c3ccccc23)NC(=O)[C@H](Cc2ccccc2)NC(=O)[C@@H](NC(=O)[C@H](N)Cc2ccccc2)CSSC[C@@H](C(=O)N[C@H](CO)[C@@H](C)O)NC1=O [Octreotide, reference compound]
half-life ([2]; dog, blood, intravenous administration, read-out: elimination half-life (converted)): ~30 min
dose excreted ([3]; rats, 10 microgram/kg s.c., read-out: Percentage eliminated through Bile): 22%
dose excreted ([3]; rats, 10 microgram/kg s.c., read-out: Percentage eliminated through Urine): 19%
duration of GH lowering effect [4]: 5 h
ID50 p.o. (GH level in the serum [6]): 1400 microgram/kg
duration of increased stomach pH (gastric acid secretion): 2 hours
pH of the stomach juice reached (gastric acid secretion): 6-7 pH

C[C@H](N)C(=O)NCC(=O)N[C@H]1CSSC[C@@H](C(=O)O)NC(=O)[C@H](CO)NC(=O)[C@H]([C@@H](C)O)NC(=O)[C@H](Cc2ccccc2)NC(=O)[C@H]([C@@H](C)O)NC(=O)[C@H](CCCCN)NC(=O)[C@H](Cc2c[nH]c3ccccc23)NC(=O)[C@H](Cc2ccccc2)NC(=O)[C@H](Cc2ccccc2)NC(=O)[C@H](CC(N)=O)NC(=O)[C@H](CCCCN)NC1=O [natural stomatostatin, reference compound]
ID50 (amount required to lower the GH content by 50%) (GH level in the serum [1]; [8]): 93 microgram/kg

CC[C@H](C)[C@@H]1NC(=O)[C@H](Cc2ccc(O)cc2)NC(=O)[C@@H](N)CSSC[C@@H](C(=O)N2CCC[C@H]2C(=O)N[C@@H](CC(C)C)C(=O)NCC(N)=O)NC(=O)[C@H](CC(N)=O)NC(=O)[C@H](CCC(N)=O)NC1=O [oxytocin, reference compound]
level at 0.25 h [5]: 7.53 ng/mL
level at 0.5 h [5]: 3.6 ng/mL
level at 1 h [5]: 2.55 ng/mL

N^α -isocaproyl-des(1-4)-[Ala^7,Nε-(1-deoxyfructosyl)-Lys^11,1 8 ]salmon Calcitonin [Example 37]
duration of action compared with the unmodified peptide [7]: much longer
reduction in the calcium level in the blood after 6 hours [7]: still as pronounced as after 3 hours

N^α -isocaproyl-des-(1-4)-[Ala^7, N^κ -(α-D-glucosyl-(1-4)-deoxyfructosyl)-Lys^11,18 ]salmon Calcitonin [Example 38]
duration of action compared with the unmodified peptide [7]: much longer
reduction in the calcium level in the blood after 6 hours [7]: still as pronounced as after 3 hours

Source: patent publication US5656721A, “Peptide derivatives” (Sandoz Ltd., priority 1986, dated 1997)
